Active and inactive are the calls of the source. The calls are words filed in the database; no cut-off is given here.
Columns and labels:
[1] = Cytotoxicity against human GSC18 cells assessed as reduction in cell viability after 4 days by MTS assay; assay type: functional, cell-based; conditions: GSC18, 96 h
[2] = Cytotoxicity against human GSC12 cells assessed as reduction in cell viability after 4 days by MTS assay; assay type: functional, cell-based; conditions: GSC12, 96 h
HEK-293T [3] = test: Cytotoxicity against human 293T cells assessed as reduction in cell viability after 4 days by MTS assay; assay type: cell-based; conditions: 96 h
[4] = Cytotoxicity against human HAC cells assessed as reduction in cell viability after 4 days by MTS assay; assay type: cell-based; conditions: 96 h
Homo sapiens [5] = organism: Homo sapiens; test: Induction of apoptosis in human GSC18 cells assessed as increase in calpain1 mRNA levels at 25 uM after 10 days by RT-PCR analysis relative to DMSO; assay type: functional, cell-based
Homo sapiens [6] = organism: Homo sapiens; test: Induction of extrinsic apoptosis in human GSC18 cells assessed as increase in IL1 mRNA levels at 25 uM after 10 days by RT-PCR analysis relative to DMSO; assay type: functional, cell-based
Homo sapiens [7] = test: Antiproliferative activity against human GSC18 cells assessed as damage to clonal spheres morphology at 25 uM administered 2 weeks post clonal sphere formation measured after 10 days by crystal violet-staining based assay; assay type: functional, cell-based
Homo sapiens [8] = organism: Homo sapiens; test: Induction of intrinsic apoptosis in human GSC18 cells assessed as increase in apaf1 mRNA levels at 25 uM after 10 days by RT-PCR analysis relative to DMSO; assay type: functional, cell-based
Homo sapiens [9] = organism: Homo sapiens; test: Antiproliferative activity against human GSC18 cells assessed as reduction in BrdU-positive proliferating cells at 25 uM after 72 hrs by BrdU incorporation assay relative to DMSO; assay type: functional, cell-based
Homo sapiens [10] = organism: Homo sapiens; test: Induction of intrinsic apoptosis in human GSC18 cells assessed as increase in bid mRNA levels at 25 uM after 10 days by RT-PCR analysis relative to DMSO; assay type: functional, cell-based
Homo sapiens [11] = organism: Homo sapiens; test: Cytotoxicity against human GSC18 cells assessed as cell growth inhibition at 25 uM by phenotypic screening-based assay; assay type: functional
Homo sapiens [12] = organism: Homo sapiens; test: Induction of intrinsic apoptosis in human GSC18 cells assessed as increase in bcl-2 mRNA levels at 25 uM after 10 days by RT-PCR analysis relative to DMSO; assay type: functional, cell-based
HEK-293T [13] = test: Cytotoxicity against human 293T cells assessed as cell growth inhibition at 25 uM by phenotypic screening-based assay
Homo sapiens [14] = organism: Homo sapiens; test: Induction of extrinsic apoptosis in human GSC18 cells assessed as increase in TNFalpha mRNA levels at 25 uM after 10 days by RT-PCR analysis relative to DMSO; assay type: functional, cell-based
Homo sapiens [15] = organism: Homo sapiens; test: Induction of apoptosis in human GSC18 cells assessed as increase in caspase12 mRNA levels at 25 uM after 10 days by RT-PCR analysis relative to DMSO; assay type: functional, cell-based
[16] = Cytotoxicity against human HAC cells assessed as cell growth inhibition at 25 uM by phenotypic screening-based assay
Homo sapiens [17] = organism: Homo sapiens; test: Cytotoxicity against human GSC12 cells assessed as cell growth inhibition at 25 uM by phenotypic screening-based assay; assay type: functional
Homo sapiens [18] = test: Antiproliferative activity against human GSC18 cells assessed as decrease in number of clonal spheres at 25 uM administered 2 weeks post clonal sphere formation measured after 10 days by crystal violet-staining based assay; assay type: functional, cell-based
Homo sapiens [19] = organism: Homo sapiens; test: Induction of intrinsic apoptosis in human GSC18 cells assessed as increase in bax mRNA levels at 25 uM after 10 days by RT-PCR analysis relative to DMSO; assay type: functional, cell-based
Homo sapiens [20] = organism: Homo sapiens; test: Induction of apoptosis in human GSC18 cells assessed as increase in caspase-3 positive apoptotic cells at 25 uM by immunofluorescence-staining based microscopic analysis; assay type: functional, cell-based

`CC(=O)O[C@H]1C(=O)[C@@]2(C)[C@H]([C@H](OC(=O)c3ccccc3)[C@]3(O)C[C@H](OC(=O)[C@H](O)[C@@H](NC(=O)c4ccccc4)c4ccccc4)C(C)=C1C3(C)C)[C@]1(OC(C)=O)CO[C@@H]1C[C@@H]2O` [PACLITAXEL] gave an IC50 [1] of 10.4 µM, an IC50 [2] of 12.5 µM and an IC50 (HEK-293T [3]) of 0.0023 µM. For the same compound, the IC50 [4] was 0.0121 µM.
In the case of `C=C[C@H]1[C@H](O[C@@H]2O[C@H](CO[C@H]3C[C@@]45c6ccccc6N[C@]4(O3)[C@@H]3C[C@@H](/C(=C/C)C=[N+]3[O-])[C@H]5CC(=O)OC)[C@@H](O)[C@H](O)[C@H]2O)OC=C2C(=O)N3CCc4c([nH]c5ccccc45)[C@@H]3C[C@H]21`, the IC50 [1] is reported as 16.1 µM, the Activity (Homo sapiens [5]) is reported as “inactive” and the Activity (Homo sapiens [6]) is reported as “Active”. The Activity (Homo sapiens [7]) was “Active”, the Activity (Homo sapiens [8]) was “inactive” and the Activity (Homo sapiens [9]) was “Active”. The Activity (Homo sapiens [10]) was “inactive”, the IC50 [2] was 20.7 µM and the “growth inhibition (GI)” value (Homo sapiens [11]) was “Active”. For the same compound, the Activity (Homo sapiens [12]) was “inactive”, the Activity (HEK-293T [13]) was “Non-Toxic” and the Activity (Homo sapiens [14]) was “Active”. The Activity (Homo sapiens [15]) was “inactive”, the IC50 (HEK-293T [3]) was greater than 90 µM and the Activity [16] was “Non-Toxic”. The “growth inhibition (GI)” value (Homo sapiens [17]) was “Active”, the Activity (Homo sapiens [18]) was “Active” and the IC50 [4] was greater than 90 µM. The Activity (Homo sapiens [19]) was “inactive” and the Activity (Homo sapiens [20]) was “Active”.
For `C=C[C@H]1[C@H](O[C@@H]2O[C@H](CO[C@H]3C[C@@]45c6ccccc6N[C@]4(O3)[C@@H]3C[C@@H](/C(=C\C)C=[N+]3[O-])[C@H]5CC(=O)OC)[C@@H](O)[C@H](O)[C@H]2O)OC=C2C(=O)N3CCc4c([nH]c5ccccc45)[C@@H]3C[C@H]21`, the IC50 [1] was 19.2 µM, the Activity (Homo sapiens [5]) was “inactive” and the Activity (Homo sapiens [6]) was “Active”. For the same compound, the Activity (Homo sapiens [7]) was “Active”, the Activity (Homo sapiens [8]) was “inactive” and the Activity (Homo sapiens [9]) was “Active”. The Activity (Homo sapiens [10]) was “inactive”, the IC50 [2] was 30.9 µM and the “growth inhibition (GI)” value (Homo sapiens [11]) was “Active”. For the same compound, the Activity (Homo sapiens [12]) was “inactive”, the Activity (HEK-293T [13]) was “Non-Toxic” and the Activity (Homo sapiens [14]) was “Active”. The Activity (Homo sapiens [15]) was “inactive”, the IC50 (HEK-293T [3]) was greater than 90 µM and the Activity [16] was “Non-Toxic”. For the same compound, the “growth inhibition (GI)” value (Homo sapiens [17]) was “Active”, the Activity (Homo sapiens [18]) was “Active” and the IC50 [4] was greater than 90 µM. The Activity (Homo sapiens [19]) was “inactive” and the Activity (Homo sapiens [20]) was “Active”.
